From US20250163077A1, “MEMBRANE-ASSOCIATED TYROSINE- AND THREONINE-SPECIFIC CDC2-INHIBITORY KINASE (PKMYT1) INHIBITORS AND USES THEREOF” (Insilico Medicine IP Limited, priority 2022, published 2025)

What was measured:
[1] = biological target: PKMYT1 (Homo sapiens (Human), UniProt Q99640); assay: PKMYT1 HTRF Assay; assay type: binding; conditions: Tracer 178, compound 10 μM to 0.5 nM, read-out: MYT1 HTRF IC50
Protocol: Compound serial dilution is performed by Echo, and the final concentrations vary from 10 μM to 0.5 nM. This was filled by the addition of 5 μL/well of Enzyme solution to the assay plate containing the compound. The plate was centrifuged at 1000 rpm for 1 minute, and incubate 15 minutes at 25° C. […] Next 5 μL GST-Tb was added into the assay plate, the plate was centrifuged at 1000 rpm for 1 minute, and incubate for 15 minutes at 25° C. The assay plate was read on Envision.

[2] = biological target: WEE1 (Homo sapiens (Human), UniProt P30291); assay: WEE1 ADP-Glo Assay; assay type: biochemical; conditions: compound 10 μM to 0.5 nM
Protocol: Compound serial dilution is performed by Echo, and the final concentrations vary from 10 μM to 0.5 nM. This was filled by the addition of 5 μL/well of Enzyme solution to the assay plate containing the compound. The plate was centrifuged at 1000 rpm for 1 minute, and incubate 15 minutes at 25° C. Then 5 μL/well of substrate solution was added to initiate the reaction, and incubate for 60 minutes at 25° C. Next 10 μL kinase detection reagent was added into the assay plate, the plate was centrifuged at 1000 rpm for 1 minute, and incubate for 60 minutes at […]. The assay plate was read on Envision for US LUM as RLU.

WEE1, sequence (P30291 whole entry): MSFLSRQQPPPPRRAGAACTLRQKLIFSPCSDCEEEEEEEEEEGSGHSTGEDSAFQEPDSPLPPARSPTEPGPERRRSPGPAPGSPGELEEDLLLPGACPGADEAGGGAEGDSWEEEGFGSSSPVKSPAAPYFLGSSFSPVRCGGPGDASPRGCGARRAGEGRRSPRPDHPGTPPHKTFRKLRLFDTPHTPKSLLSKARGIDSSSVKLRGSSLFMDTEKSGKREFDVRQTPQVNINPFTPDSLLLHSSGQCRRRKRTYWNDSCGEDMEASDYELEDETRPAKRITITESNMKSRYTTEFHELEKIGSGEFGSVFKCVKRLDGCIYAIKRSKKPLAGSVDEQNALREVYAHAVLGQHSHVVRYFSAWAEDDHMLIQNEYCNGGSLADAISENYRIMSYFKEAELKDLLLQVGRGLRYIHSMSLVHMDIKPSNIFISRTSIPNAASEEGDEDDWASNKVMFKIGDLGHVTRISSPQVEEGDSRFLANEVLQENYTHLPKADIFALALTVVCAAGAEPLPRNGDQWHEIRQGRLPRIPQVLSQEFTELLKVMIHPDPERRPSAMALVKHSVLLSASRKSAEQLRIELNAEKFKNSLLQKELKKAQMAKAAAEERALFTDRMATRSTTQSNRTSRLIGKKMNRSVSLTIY
PKMYT1, sequence (Q99640 whole entry): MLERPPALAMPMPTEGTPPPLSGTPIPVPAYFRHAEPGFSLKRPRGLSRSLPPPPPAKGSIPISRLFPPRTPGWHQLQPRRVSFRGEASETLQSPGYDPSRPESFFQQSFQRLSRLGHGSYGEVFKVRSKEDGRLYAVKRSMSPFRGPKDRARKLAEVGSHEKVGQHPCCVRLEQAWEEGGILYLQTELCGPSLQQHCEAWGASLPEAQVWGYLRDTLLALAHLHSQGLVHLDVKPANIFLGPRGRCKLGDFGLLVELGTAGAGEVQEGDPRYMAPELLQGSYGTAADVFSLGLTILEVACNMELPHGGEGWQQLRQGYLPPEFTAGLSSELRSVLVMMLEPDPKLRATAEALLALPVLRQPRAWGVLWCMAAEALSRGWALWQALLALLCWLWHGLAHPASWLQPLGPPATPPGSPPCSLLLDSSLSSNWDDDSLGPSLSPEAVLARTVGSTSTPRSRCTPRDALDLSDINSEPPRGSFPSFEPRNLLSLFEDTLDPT

Compound | IC50 [1] [nM] | IC50 [2] [nM]
Cc1ccc(O)c(C)c1-n1c(N)c(C(=O)N2CCc3ncsc3C2)c2nc(C)c(C)nc21 [Example 5, (6-amino-5-(3-hydroxy-2,6-dimethylphenyl)-2,3-dimethyl-5H-pyrrolo[2,3-b]pyrazin-7-yl)(6,7-dihydrothiazolo[5,4-c]pyridin-5(4H)-yl)methanone] | 10 to 50 | > 10000
Cc1ccc(O)c(C)c1-n1c(N)c(C(=O)N2CCc3nn(C)cc3C2)c2nc(C)c(C)nc21 [Example 6, (6-amino-5-(3-hydroxy-2,6-dimethylphenyl)-2,3-dimethyl-5H-pyrrolo[2,3-b]pyrazin-7-yl)(2-methyl-2,4,6,7-tetrahydro-5H-pyrazolo[4,3-c]pyridin-5-yl)methanone] | 10 to 50 | > 10000
Cc1ccc(O)c(C)c1-n1c(N)c(C(=O)N2CCc3ncccc3C2)c2nc(C)c(C)nc21 [Example 7, (6-amino-5-(3-hydroxy-2,6-dimethylphenyl)-2,3-dimethyl-5H-pyrrolo[2,3-b]pyrazin-7-yl)(7,8-dihydro-1,6-naphthyridin-6(5H)-yl)methanone] | < 10 | > 10000
Cc1ccc(O)c(C)c1-n1c(N)c(C(=O)N2CCc3ncsc3C2)c2cc(Cl)cnc21 [Example 9, (2-amino-5-chloro-1-(3-hydroxy-2,6-dimethylphenyl)-1H-pyrrolo[2,3-b]pyridin-3-yl)(6,7-dihydrothiazolo[5,4-c]pyridin-5(4H)-yl)methanone] | 10 to 50 | > 10000
Cc1nc2n(n1)CCN(C(=O)c1c(N)n(-c3c(C)ccc(O)c3C)c3ncc(Cl)cc13)C2 [Example 10, (2-amino-5-chloro-1-(3-hydroxy-2,6-dimethylphenyl)-1H-pyrrolo[2,3-b]pyridin-3-yl)(2-methyl-5,6-dihydro-[1,2,4]triazolo[1,5-a]pyrazin-7(8H)-yl)methanone] | 10 to 50 | > 10000
Cc1cc2n(n1)CCN(C(=O)c1c(N)n(-c3c(C)ccc(O)c3C)c3ncc(Cl)cc13)C2 [Example 11, (2-amino-5-chloro-1-(3-hydroxy-2,6-dimethylphenyl)-1H-pyrrolo[2,3-b]pyridin-3-yl)(2-methyl-6,7-dihydropyrazolo[1,5-a]pyrazin-5(4H)-yl)methanone] | 10 to 50 | > 10000
Cc1ccc(O)c(C)c1-n1c(N)c(C(=O)N2CCn3nc(C(F)(F)F)nc3C2)c2cc(Cl)cnc21 [Example 12, (2-amino-5-chloro-1-(3-hydroxy-2,6-dimethylphenyl)-1H-pyrrolo[2,3-b]pyridin-3-yl)(2-(trifluoromethyl)-5,6-dihydro-[1,2,4]triazolo[1,5-a]pyrazin-7(8H)-yl)methanone] | 10 to 50 | > 10000
Cc1ccc(O)c(C)c1-n1c(N)c(C(=O)N2CCn3ncc(CO)c3C2)c2nc(C)c(C)nc21 [Example 16, (6-amino-5-(3-hydroxy-2,6-dimethylphenyl)-2,3-dimethyl-5H-pyrrolo[2,3-b]pyrazin-7-yl)(3-(hydroxymethyl)-6,7-dihydropyrazolo[1,5-a]pyrazin-5(4H)-yl)methanone] | < 10 | > 10000
Cc1ccc(O)c(C)c1-n1c(N)c(C(=O)N2CCn3nc(C(C)(C)O)cc3C2)c2nc(C)c(C)nc21 [Example 19] | 500 to 5000 | 
Cc1ccc(O)c(C)c1-n1c(N)c(C(=O)N2CCn3nccc3C2C)c2nc(C)c(C)nc21 (stereo not drawn) [Example 26, (6-amino-5-(3-hydroxy-2,6-dimethylphenyl)-2,3-dimethyl-5H-pyrrolo[2,3-b]pyrazin-7-yl)(4-methyl-6,7-dihydropyrazolo[1,5-a]pyrazin-5(4H)-yl)methanone] | 500 to 5000 | > 10000
Cc1ccc(O)c(C)c1-n1c(N)c(C(=O)N2CCn3c(nnc3C(F)(F)F)C2)c2cc(Cl)cnc21 [Example 27, (2-amino-5-chloro-1-(3-hydroxy-2,6-dimethylphenyl)-1H-pyrrolo[2,3-b]pyridin-3-yl)(3-(trifluoromethyl)-5,6-dihydro-[1,2,4]triazolo[4,3-a]pyrazin-7(8H)-yl)methanone] | 50 to 500 | > 10000
Cc1ccc(O)c(Cl)c1-n1c(N)c(C(=O)N2CCn3nccc3C2)c2nc(C)c(C)nc21 [Example 28, (6-amino-5-(2-chloro-3-hydroxy-6-methylphenyl)-2,3-dimethyl-5H-pyrrolo[2,3-b]pyrazin-7-yl)(6,7-dihydropyrazolo[1,5-a]pyrazin-5(4H)-yl)methanone] | < 10 | 5430
Cc1cc(F)c(O)c(C)c1-n1c(N)c(C(=O)N2CCn3nccc3C2)c2nc(C)c(C)nc21 [Example 29, (6-amino-5-(4-fluoro-3-hydroxy-2,6-dimethylphenyl)-2,3-dimethyl-5H-pyrrolo[2,3-b]pyrazin-7-yl)(6,7-dihydropyrazolo[1,5-a]pyrazin-5(4H)-yl)methanone] | 10 to 50 | > 10000
C=Cc1cnc2c(n1)c(C(=O)N1CCn3nccc3C1)c(N)n2-c1c(C)ccc(O)c1C [Example 33, (6-amino-5-(3-hydroxy-2,6-dimethylphenyl)-2-vinyl-5H-pyrrolo[2,3-b]pyrazin-7-yl)(6,7-dihydropyrazolo[1,5-a]pyrazin-5(4H)-yl)methanone] | 10 to 50 | > 10000
Cc1ccc(O)c(C)c1-n1c(N)c(C(=O)N2CCn3nccc3C2)c2nc(C(F)(F)F)ncc21 [Example 38, (6-amino-5-(3-hydroxy-2,6-dimethylphenyl)-2-(trifluoromethyl)-5H-pyrrolo[3,2-d]pyrimidin-7-yl)(6,7-dihydropyrazolo[1,5-a]pyrazin-5(4H)-yl)methanone] | 50 to 500 | > 10000
CC#Cc1nc2c(C(=O)N3CCn4nccc4C3)c(N)n(-c3c(C)ccc(O)c3C)c2nc1C [Example 40, (6-amino-5-(3-hydroxy-2,6-dimethylphenyl)-3-methyl-2-(prop-1-yn-1-yl)-5H-pyrrolo[2,3-b]pyrazin-7-yl)(6,7-dihydropyrazolo[1,5-a]pyrazin-5(4H)-yl)methanone] | 10 to 50 | 
